In US20100209484A1, “Transdermal Triptan Delivery System” (priority 2009, published 2010):
Like-named read-outs stand apart in the source and are kept apart here. Blank lines part the entries; values can stand above or below the compound they belong to.

How the values were obtained:
[1] = cited from earlier work
[2] = cited from earlier work; remark: listed apart in the source
[3] = Solubility of zolmitriptan in pressure sensitive adhesive matrixes; assay type: physicochemical; conditions: silicone and PIB adhesive matrixes
[4] = Physical observation of patches by eye or microscope; assay type: physicochemical
Text: Permeation is increased for a given concentration of triptan if the triptan is in solution in the matrix. The patches of Table 9 were stored at the room temperature for the designated period of time then observed by eye or/and a microscope. No crystals or white spots have been observed, and the patches are clear. […] This function has not previously been known for this class of compounds.

[5] = tested on: isolated hairless mouse skin; assay: Skin permeation rate, flow-through diffusion cells; assay type: in vitro ADME; conditions: for Flux / Lag time: n = 3
Protocol: Skin permeation rates of various zolmitriptan/enhancer formulations were determined using flow through diffusion cells. Permeation experiments were done on isolated hairless mouse skin. A system comprising a multi channel peristaltic pump, a fraction collector, a circulating water bath and flow-through diffusion cells was used. Each flow-through cell had two arms, which allowed the receiver cell medium pumped to a fraction collector. The diffusion cell temperature was maintained at 37° C. by circulating water through the outer part of jacketed receiver cell. The surface area of receiver cell opening as 2 cm^2, and its volume was 5.5 ml Skin was excised from hairless mouse that was sacrificed with diethyl ether. Subcutaneous fat was removed with scissors and scalpel. Each of the flow-through diffusion cell components was connected via silicone rubber tubing with an internal diameter of 0.015 inches. The receiver cell was filled with a pH 6 buffer solution and the media stirred by Teflon-coated magnetic bar. The transdermal device was placed on the stratum corneum and the excised skin was mounted onto each receiver cell. And O-ring and cell top was placed on the top of each skin. These components are then clamped. The amount of drug permeated across the skin was calculated from the cumulative release. The samples were collected every 4 hours for 24 hours and assayed by HPLC. This method was used to measure skin permeation rates referred to as transdermal flux or flux in the examples. Zolmitriptan was analyzed by an HPLC system (Shimadzu Scientific Instruments, MD), consisting of a UV detector (SPD-10A), reversed-phase C8 column, a pump (LC-10AD), and an automatic injector (SIL-10A). The method had been previously described (Vyas et. al., 2005). Briefly, the wavelength of the UV detector was 229 nm, the column temperature was maintained at 30° C., the flow rate was 1 ml/min and injection volume was 10 μl. The mobile phase used consisted of acetonitrile/phosphate buffer pH 7.5 (15/85).

[6] = acrylic adhesive matrix without functional group, zolmitriptan 4 wt%
[7] = adhesive matrix 87-2287 (hydroxyl functional group), zolmitriptan 4 wt%
[8] = adhesive matrix 87-2510 (hydroxyl functional group), zolmitriptan 4 wt%
[9] = adhesive matrix 87-2516 (hydroxyl functional group), zolmitriptan 4 wt%
[10] = drug concentration 4 wt% in 87-2510 matrix
[11] = drug concentration 5 wt% in 87-2510 matrix
[12] = drug concentration 7.5 wt% in 87-2510 matrix
[13] = drug concentration 10 wt% in 87-2510 matrix
[14] = matrix thickness 25 μm, 4% drug loading, 87-2510
[15] = matrix thickness 60 μm, 4% drug loading, 87-2510
[16] = matrix thickness 95 μm, 4% drug loading, 87-2510
[17] = matrix thickness 130 μm, 4% drug loading, 87-2510
[18] = matrix thickness 165 μm, 4% drug loading, 87-2510

Compound: CN(C)CCc1c[nH]c2ccc(CS(=O)(=O)N3CCCC3)cc12 [Almotriptan]
bioavailable amount after oral ingestion [1]: 69%

Compound: CN1CCC[C@@H]1Cc1c[nH]c2ccc(CCS(=O)(=O)c3ccccc3)cc12 [Eletriptan]
bioavailable amount after oral ingestion [1]: 50%

Compound: CN[C@@H]1CCc2[nH]c3ccc(C(N)=O)cc3c2C1 [Frovatriptan]
bioavailable amount after oral ingestion ([1]; in females): 30%
bioavailable amount after oral ingestion ([1]; in males): 24%

Compound: CNS(=O)(=O)CCc1ccc2[nH]cc(C3CCN(C)CC3)c2c1 [Naratriptan]
bioavailable amount after oral ingestion ([1]; in females): 74%
bioavailable amount after oral ingestion ([1]; in males): 63%

Compound: CN(C)CCc1c[nH]c2ccc(Cn3cncn3)cc12 [Rizatriptan]
bioavailable amount after oral ingestion [1]: 47%

Compound: CNS(=O)(=O)Cc1ccc2[nH]cc(CCN(C)C)c2c1 [Sumatriptan]
bioavailable amount after oral ingestion [1]: 14%

solubility in adhesive matrix [3]: inadequate
patch appearance ([4]; 4% drug load in 87-2510 matrix): clear
patch appearance ([4]; 5% or more drug load in 87-2510 matrix): milky
Flux [5, 6]: 6.16 μg/cm^2hr
Lag time [5, 6]: 10.7 h
Flux [5, 7]: 6.5 μg/cm^2hr
Lag time [5, 7]: 13.0 h
Flux [5, 8]: 15.6 μg/cm^2hr
Lag time [5, 8]: 9.3 h
Flux [5, 9]: 14.4 μg/cm^2hr
Lag time [5, 9]: 11.8 h
Flux ([5]; adhesive matrix with carboxyl functional group, zolmitriptan 4 wt%): 0.22 μg/cm^2hr
Flux [5, 10]: 13.5 μg/cm^2hr
Lag time [5, 10]: 8.2 h
Flux [5, 11]: 14.8 μg/cm^2hr
Lag time [5, 11]: 8.5 h
Flux [5, 12]: 15.8 μg/cm^2hr
Lag time [5, 12]: 8.4 h
Flux [5, 13]: 18.3 μg/cm^2hr
Lag time [5, 13]: 9.0 h
change of flux with drug loading ([5]; drug loading in 87-2510 matrix increased from 4% to 10%): did not change significantly
Flux [5, 14]: 1.2 μg/cm^2hr
Lag time [5, 14]: 9.0 h
Flux [5, 15]: 6.1 μg/cm^2hr
Lag time [5, 15]: 5.5 h
Flux [5, 16]: 11.7 μg/cm^2hr
Lag time [5, 16]: 5.2 h
Flux [5, 17]: 14.1 μg/cm^2hr
Lag time [5, 17]: 7.0 h
Flux [5, 18]: 13.0 μg/cm^2hr
Lag time [5, 18]: 7.4 h
Compound: CN(C)CCc1c[nH]c2ccc(C[C@H]3COC(=O)N3)cc12 [Zolmitriptan]
bioavailable amount after oral ingestion [1]: 40%
pKa [2]: 9.64
solubility ([2]; in water and methanol): soluble
